{
  "source": "patent US8217172B2",
  "about": "“Solid forms of 1-ethyl-3-(5-(5-fluoropyridin-3-yl)-7-(pyrimidin-2-yl)-1H-benzo[d]imidazol-2-yl)urea” (Vertex Pharmaceuticals Incorporated, priority 2007, dated 2012)",
  "type_in_all_cases": "physicochemical",
  "key": {"[1]": {"assay": "Solubility in various media (equilibration on a shaking bed for 24 hours, HPLC)", "conditions": "for solubility at 24 h: thermodynamic from solid", "protocol": "(§1) Solubility: The solubility of form IA in various media was determined at ambient conditions by equilibrating aliquots of the drug powder with the solvents on a shaking bed for 24 hours. The samples were centrifuged, the saturated solutions of the drug were then separated and analyzed by HPLC. The sample volume was 100 μL and the target concentration was 10 mg/mL. The saturated solutions were diluted appropriately and analyzed by HPLC.\nSolubility: Solubility of form IIC in various media was determined at ambient conditions by equilibrating aliquots of the drug powder with the solvents on a shaking bed for 24 hours. Samples were spun and the supernatant was carefully separated and analyzed by HPLC at the 24-hour timepoint using a stability-indicating method. […] Some variability may occur between lots of a particular sample.\nas §1, with “Solubility” for “The solubility”, “IIIB” for “IA”, “medium” for “solvents”, “μL,” for “μL”, “mg/ml.” for “mg/mL.”"}, "[2]": {"assay": "Stability analysis (chemical stability by HPLC, physical stability by XRPD)", "source_text": "In some embodiments, less than 25% of the form of Compound 1 decomposes, in some embodiments, less than about 20%, less than about 15%, less than about 10%, less than about 5%, less than about 3%, less than about 1%, less than about 0.5% of the form of Compound 1 decomposes under the conditions specified. In some embodiments, no detectable amount of the form of Compound 1 decomposes.\nIn some embodiments, less than 25% of the form of Compound 1 changes into one or more different physical forms when subjected to specified conditions, In some embodiments, less than about 20%, less than about 15%, less than about 10%, less than about 5%, less than about 3%, less than about 1%, less than about 0.5% of the form of Compound 1 changes into one or more different physical forms of Compound 1 when subjected to specified conditions. In some embodiments, no detectable amount of the form of Compound 1 changes into one or more different physical forms of Compound 1."}, "[3]": {"assay": "Dynamic Vapor Sorption (DVS), step isothermal study", "conditions": "25° C.", "protocol": "(§2) Dynamic Vapor Sorption (DVS): A step isothermal study (25° C.) was conducted on a representative sample of form IA using a VTI SGA 100 Symmetric Vapor Sorption Analyzer. An aliquot of approximately 10 mg was weighed in an open platinum dish and exposed to different levels of humidity at 25° C. Relative humidity (RH) steps were from 5% to 95% (adsorption) and from 95% to 5% in increments of 5% RH (desorption). The equilibration criterion was 0.0100 wt % change in 5 min, with a max equilibration time of 180 min. The sample picked up ˜8 wt % moisture at 95% relative humidity (RH).\nas §2, with “a” for “a representative”, “form IIA” for “form IA”, “The material” for “The sample”, “up ˜11” for “up ˜8”\nas §2, with “a” for “a representative”, “form IIC” for “form IA”, “The material” for “The sample”, “up ˜4” for “up ˜8”\nWater Vapor Sorption analysis: Vapor Sorption analysis of a sample of form IIIB was done using a SGA-100 Vapor Sorption Analyzer (VTI, Hialeah, Fla.). A sample with weight of approximately 7-12 mg was measured isothermally at 25° C. Data was collected by Isotherm software and analyzed by Microsoft Excel with a VTI macro (VTI, Hialeah, Fla.). The sample gained about 4.6% in weight from 5 to 95% RH (25° C.)."}, "[4]": {"conditions": "various storage conditions, including 40° C./75% RH (e.g., open container)"}},
  "note": "Read-outs that look alike come from different tables or passages of the source.",
  "data": [
    {"smiles": "CCNC(=O)Nc1nc2cc(-c3cncc(F)c3)cc(-c3ncccn3)c2[nH]1", "note": "[Form IA, crystalline 1-ethyl-3-(5-(5-fluoropyridin-3-yl)-7-(pyrimidin-2-yl)-1H-benzo[d]imidazol-2-yl)urea]", "values": [
      {"measurement": "solubility at 24 h", "setting": "[1]; 0.05 M potassium biphthalate-sodium hydroxide buffer, pH 3, aqueous buffer, Potassium biphthalate sodium hydroxide, pH 3, read-out: Solubility in 0.05M Buffers at Different pH", "value": 70, "unit": "µg/mL"},
      {"measurement": "solubility at 24 h", "setting": "[1]; 0.05 M potassium biphthalate-sodium hydroxide buffer, pH 5, aqueous buffer, Potassium biphthalate sodium hydroxide, pH 5, read-out: Solubility in 0.05M Buffers at Different pH", "value": "< 1", "unit": "µg/mL"},
      {"measurement": "solubility at 24 h", "setting": "[1]; 0.05 M potassium chloride-hydrochloric acid buffer, pH 1, simulated gastric fluid, Potassium chloride hydrochloric acid, pH 1, read-out: Solubility in 0.05M Buffers at Different pH", "value": 2240, "unit": "µg/mL"},
      {"measurement": "solubility at 24 h", "setting": "[1]; 0.05 M potassium phosphate monobasic-sodium hydroxide buffer, pH 7, aqueous buffer, Potassium phosphate monobasic-sodium hydroxide, pH 7, read-out: Solubility in 0.05M Buffers at Different pH", "value": "< 1", "unit": "µg/mL"},
      {"measurement": "solubility at 24 h", "setting": "[1]; 0.05 M potassium phosphate monobasic-sodium hydroxide buffer, pH 9, aqueous buffer, Potassium phosphate monobasic-sodium hydroxide, pH 9, read-out: Solubility in 0.05M Buffers at Different pH", "value": "< 1", "unit": "µg/mL"},
      {"measurement": "solubility at 24 h", "setting": "[1]; 0.1N HCl, pH 1.29, simulated gastric fluid, 0.1N HCL, pH 1.29, ambient, 24 h, read-out: Solubility", "value": 13700, "unit": "µg/mL"},
      {"measurement": "solubility at 24 h", "setting": "[1]; 1% SLS (sodium lauryl sulfate), pH 7.87, aqueous with cosolvent or surfactant or cyclodextrin, 1% SLS (Sodium Lauryl Sulfate), pH 7.87, ambient, 24 h, read-out: Solubility", "value": 75, "unit": "µg/mL"},
      {"measurement": "solubility at 24 h", "setting": "[1]; 1% Tween 80 in water, aqueous with cosolvent or surfactant or cyclodextrin, 1% Tween80 in water, ambient, 24 h, read-out: Solubility", "value": 10, "unit": "µg/mL"},
      {"measurement": "solubility at 24 h", "setting": "[1]; 10% Cremophor EL, pH 6.48, aqueous with cosolvent or surfactant or cyclodextrin, 10% Cremophor EL, pH 6.48, ambient, 24 h, read-out: Solubility", "value": 66, "unit": "µg/mL"},
      {"measurement": "solubility at 24 h", "setting": "[1]; 10% Cremophor in water, aqueous with cosolvent or surfactant or cyclodextrin, 10% Cremophor in water, ambient, 24 h, read-out: Solubility", "value": 80, "unit": "µg/mL"},
      {"measurement": "solubility at 24 h", "setting": "[1]; 10% Tween 80, pH 6.22, aqueous with cosolvent or surfactant or cyclodextrin, 10% Tween 80, pH 6.22, ambient, 24 h, read-out: Solubility", "value": 67, "unit": "µg/mL"},
      {"measurement": "solubility at 24 h", "setting": "[1]; 10% Vit E TPGS, pH 5.57, aqueous with cosolvent or surfactant or cyclodextrin, 10% Vit E TPGS, pH 5.57, ambient, 24 h, read-out: Solubility", "value": 87, "unit": "µg/mL"},
      {"measurement": "solubility at 24 h", "setting": "[1]; D5W (dextrose 5% in water), saline or isotonic, D5W (Dextrose 5% in water), ambient, 24 h, read-out: Solubility", "value": "< 1", "unit": "µg/mL"},
      {"measurement": "solubility at 24 h", "setting": "[1]; Fasted SIF (Dressman's recipe 1), fassif, Dressman's recipe 1-Fasted SIF, ambient, 24 h, read-out: Solubility", "value": "< 1", "unit": "µg/mL"},
      {"measurement": "solubility at 24 h", "setting": "[1]; Fed SIF (simulated intestinal fluid, Dressman's recipe 1), fessif, Dressman's recipe 1-Fed SIF (Simulated Intestinal Fluid), ambient, 24 h, read-out: Solubility", "value": 10, "unit": "µg/mL"},
      {"measurement": "solubility at 24 h", "setting": "[1]; Miglyol 810, oil or lipid, Miglyol 810, ambient, 24 h, read-out: Solubility", "value": 17, "unit": "µg/mL"},
      {"measurement": "solubility at 24 h", "setting": "[1]; PBS, aqueous buffer, PBS (Phosphate Buffer Saline), ambient, 24 h, read-out: Solubility", "value": "< 1", "unit": "µg/mL"},
      {"measurement": "solubility at 24 h", "setting": "[1]; PEG 400, pH 7.54, organic solvent or mixture, PEG 400, pH 7.54, ambient, 24 h, read-out: Solubility", "value": 1620, "unit": "µg/mL"},
      {"measurement": "solubility at 24 h", "setting": "[1]; SGF (simulated gastric fluid, USP recipe), simulated gastric fluid, USP recipe-SGF (Simulated Gastric Fluid), ambient, 24 h, read-out: Solubility", "value": 4920, "unit": "µg/mL"},
      {"measurement": "solubility at 24 h", "setting": "[1]; Tris buffer, pH 7 (1.0 M), pH 7.2, aqueous buffer, Tris buffer, pH 7 (1.0M), pH 7.20, ambient, 24 h, read-out: Solubility", "value": "< 1", "unit": "µg/mL"},
      {"measurement": "solubility", "setting": "[1]; at a pH of about 1", "value": "about 2 mg/mL"},
      {"measurement": "solubility at 24 h", "setting": "[1]; deionized water, pH 7.14, water, Deionized Water, pH 7.14, ambient, 24 h, read-out: Solubility", "value": "< 1", "unit": "µg/mL"},
      {"measurement": "solubility at 24 h", "setting": "[1]; ethanol, organic solvent or mixture, Ethanol (second entry, pH NA), ambient, 24 h, read-out: Solubility", "value": 220, "unit": "µg/mL"},
      {"measurement": "solubility at 24 h", "setting": "[1]; ethanol, pH 6.71, organic solvent or mixture, Ethanol (first entry), pH 6.71, ambient, 24 h, read-out: Solubility", "value": 56, "unit": "µg/mL"},
      {"measurement": "solubility at 24 h", "setting": "[1]; octanol, organic solvent or mixture, Octanol, ambient, 24 h, read-out: Solubility", "value": 175, "unit": "µg/mL"},
      {"measurement": "solubility at 24 h", "setting": "[1]; pH 1, simulated gastric fluid, at a pH of about 1, read-out: solubility", "value": "≥ 2000", "unit": "µg/mL"},
      {"measurement": "solubility at 24 h", "setting": "[1]; propylene glycol, pH 6.04, organic solvent or mixture, Propylene Glycol, pH 6.04, ambient, 24 h, read-out: Solubility", "value": 359, "unit": "µg/mL"},
      {"measurement": "remains chemically stable for at least", "setting": "[2]; 40° C./75% relative humidity", "value": "≥ 6", "unit": "months"},
      {"measurement": "remains in substantially the same physical form for at least", "setting": "[2]; 40° C./75% relative humidity", "value": "≥ 6", "unit": "months"},
      {"measurement": "stability when subjected to mild mechanical stress", "setting": "[2]; mild mechanical stress such as grinding", "value": "chemically and physically stable"},
      {"measurement": "chemically and physically stable for at least about", "setting": "[2]; [4]", "value": "at least 2 weeks"},
      {"measurement": "chemically and physically stable for at least about (e.g. value)", "setting": "[2]; [4]", "value": "≥ 6", "unit": "months"},
      {"measurement": "hygroscopicity", "setting": "[3]; DVS", "value": "moderate hygroscopicity"},
      {"measurement": "hydrate formation", "setting": "[3]; DVS, 5% to 95% RH", "value": "did not form a hydrate"},
      {"measurement": "release of adsorbed water in the desorption stage", "setting": "[3]; DVS, 95% to 5% RH", "value": "All adsorbed water was released"},
      {"measurement": "moisture picked up at 95% relative humidity (RH)", "setting": "[3]; DVS, adsorption 5% to 95% RH", "value": "~8", "unit": "wt %"},
      {"measurement": "weight gain from 5% to 95% relative humidity", "setting": "[3]; step isothermic study (DVS)", "value": 8, "unit": "%"}
    ]}
  ]
}
